Structures are written as SMILES. Where a name gives a salt, the structure may show the parent alone.

For this assay, the target named is T1, renin (Homo sapiens, UniProt P00797).
T1 sequence (P00797 67-406): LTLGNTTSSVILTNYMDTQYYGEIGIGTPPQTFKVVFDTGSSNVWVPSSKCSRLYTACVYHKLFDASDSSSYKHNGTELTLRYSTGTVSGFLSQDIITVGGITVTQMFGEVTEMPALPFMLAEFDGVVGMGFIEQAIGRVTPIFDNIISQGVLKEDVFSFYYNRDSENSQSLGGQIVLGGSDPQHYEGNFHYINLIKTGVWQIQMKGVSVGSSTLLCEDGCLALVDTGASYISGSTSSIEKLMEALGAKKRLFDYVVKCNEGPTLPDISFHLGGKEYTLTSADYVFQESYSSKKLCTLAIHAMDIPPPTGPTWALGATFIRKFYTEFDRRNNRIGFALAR
Kind of assay: in vitro renin inhibitory activity, standard radioimmunoassay for angiotensin I. The assay is classed as biochemical. The procedure:
The effectiveness of the aforementioned compounds is determined by a test for in vitro renin inhibitory activity. This activity is determined by a standard radioimmunoassay for angiotensin I. In this assay the enzyme, renin, incubated for two hours at 37° in the presence of a substrate, angiotensinogen, generates the product, angiotensin I. Test compounds are added to the incubation mixture.
Take `CC(C)CC(=O)N[C@H](CN[C@H](C(=O)N[C@@H](CC(C)C)[C@@H](O)CC(=O)N[C@@H](C)C(=O)N[C@@H](CC(C)C)[C@@H](O)CC(=O)NCc1ccccc1)C(C)C)C(C)C` (relative stereo) [Example 52, 5,8,11,16,19-pentaazatricosan-23-amide, 13,2-dihydroxy-2,17-dimethyl-6,9-bis(1-methylethyl)-12,20-bis(2-methylpropyl)-4,10,15,18-tetraoxo-N-(phenylmethyl)-,:6S-(6R*,9R*,12R*,13R*,17R*,20R*,21R*):-,acetate (salt) (2:3)]: 18 µM corresponded to half-maximal inhibition (IC50).

Compound `CC(C)CC(NC(=O)CC(O)C(CC(C)C)NC(=O)CC(O)C(O)C(CC1CCCCC1)NC(=O)OC(C)(C)C)C(=O)NCc1ccccc1` (single isomer, unassigned) [Example 17, 15-(cyclohexylmethyl)-8,13,14-trihydroxy-4,9-bis(2-methylpropyl)-3,6,11-trioxo-1-phenyl-2,5,10,16-tetraazaheptadecan-17-oic acid, 1,1-dimethylethyl ester] returned an IC50 of 6.5 µM.

Compound `CC(C)C[C@H](NC(=O)C[C@H](O)[C@H](CC(C)C)NC(=O)C(Cc1c[nH]cn1)CC(O)[C@H](Cc1ccccc1)NC(=O)OC(C)(C)C)C(=O)NCc1ccccc1` (single isomer, unassigned) [Example 30, BOC-PHE[CHOHCH2 ]HIS-STA-LEU-NHCH2 Ph] came in with an IC50 of 30 µM.

In the case of `CC(C)CC(=O)N[C@@H](CC(C)C)C(=O)CC(Cc1ccccc1)C(=O)N[C@@H](CC(C)C)[C@@H](O)CC(=O)N[C@@H](CC(C)C)C(=O)NCc1ccccc1` (single isomer, unassigned) [Example 32], the IC50 came out at 7.1 µM.

`CC(C)C[C@H](NC(=O)C/C=C/[C@H](Cc1ccccc1)NC(=O)OC(C)(C)C)[C@@H](O)CC(=O)N[C@@H](C)C(=O)N[C@@H](CC(C)C)[C@@H](O)CC(=O)NCc1ccccc1` [Example 1, [5S-[5R*,6R*,9R*,13R*,14R*(E),20R*]]-5,13-dihydroxy-9-methyl-6,14-bis(2-methylpropyl)-3,8,11,16-tetraoxo-1-phenyl-20-(phenylmethyl)-2,7,10,15,21-pentaazadocos-18-en-22-oic acid, 1,1-dimethylethyl ester]: the IC50 amounted to 8.2 µM.

The compound `CC(C)C[C@H](NC(=O)C(/C=C/[C@H](Cc1ccccc1)NC(=O)OC(C)(C)C)Cc1ccccc1)[C@@H](O)CC(=O)N[C@@H](C)C(=O)N[C@@H](CC(C)C)[C@@H](O)CC(=O)NCc1ccccc1` (stereo partly shown) [Example 2, (E)-5,13-dihydroxy-9-methyl-6,14-bis(2-methylpropyl)-3,8,11,16-tetraoxo-1-phenyl-17,20-bis(phenylmethyl)-2,7,10,15,21-pentaazadocos-18-en-22-oic acid, 1,1-dimethylethyl ester] came in with an IC50 of 12 µM.

Take `CC(C)C[C@H](NC(=O)C[C@H](O)[C@H](CC(C)C)NC(=O)C/C=C/[C@H](Cc1c[nH]c2ccccc12)NC(=O)OC(C)(C)C)C(=O)NCc1ccccc1` [Example 7, [4S-(4R*,8R*,9R*,13E,15R*)]-8-hydroxy-15-(1H-indol-3-ylmethyl)-4,9-bis(2-methylpropyl)-3,6,11-trioxo-1-phenyl-2,5,10-16-tetraazaheptadec-13-en-17-oic acid, 1,1-dimethylethyl ester]: inhibition was half-maximal at 20 µM (IC50).

With `CC(C)C[C@H](NC(=O)C[C@H](O)[C@H](CC1CCCCC1)NC(=O)C/C=C/[C@H](Cc1ccccc1)NC(=O)OC(C)(C)C)C(=O)NCc1cccc(CNC(=O)OCc2ccccc2)c1` [Example 8], the concentration for half-maximal inhibition (IC50) stood at 8 µM.

For the compound `CC(C)C[C@H](NC(=O)C[C@H](O)[C@H](CC1CCCCC1)NC(=O)CC1OC1[C@H](Cc1ccccc1)NC(=O)OC(C)(C)C)C(=O)NCc1cccc(CNC(=O)OCc2ccccc2)c1` (stereo partly shown) [Example 13], the IC50 came to 2.6 µM.

The compound `CC(C)CC(NC(=O)CC(O)C(CC(C)C)NC(=O)CC(O)C(O)C(Cc1c[nH]c2ccccc12)NC(=O)OC(C)(C)C)C(=O)NCc1ccccc1` (stereo not shown) [Example 18, 8,13,14-trihydroxy-15-(1H-indol-3-ylmethyl)-4,9-bis-(2-methylpropyl)-3,6,11-trioxo-1-phenyl-2,5,10,16-tetraazaheptadecan-17-oic acid, 1,1-dimethylethyl ester] showed an IC50 of 2.3 µM. This IC50 and that of the compound before are within 1.5-fold of each other.

Consider `CC(C)CC(NC(=O)CC(O)C(CC(C)C)NC(=O)/C=C/C(O)C(Cc1ccccc1)NC(=O)OC(C)(C)C)C(=O)NCc1ccccc1` (stereo not shown) [Example 19, (E)-8,14-dihydroxy-4,9-bis(2-methylpropyl)-3,6,11-trioxo-1-phenyl-15-(phenylmethyl)-2,5,10,16-tetraazaheptadec-12-en-17-oic acid, 1,1-dimethylethyl ester], for which 2.1 µM corresponded to half-maximal inhibition (IC50).

As to `CC(C)C[C@H](NC(=O)C[C@H](O)[C@H](CC1CCCCC1)NC(=O)/C=C/C(O)[C@H](Cc1ccccc1)NC(=O)OC(C)(C)C)C(=O)NCc1cccc(CNC(=O)OCc2ccccc2)c1` (stereo partly shown) [Example 21], half-maximal inhibition (IC50) was put at 0.47 µM.

`CC(C)C[C@H](NC(=O)C[C@H](O)[C@H](CC1CCCCC1)NC(=O)CCC(O)[C@H](Cc1ccccc1)NC(=O)OC(C)(C)C)C(=O)NCc1cccc(CN)c1` (stereo partly shown) [Example 24] gave an IC50 of 0.022 µM.

For `CC(C)CC(=O)N[C@@H](Cc1ccccc1)C(=O)N[C@@H](Cc1c[nH]cn1)C(=O)N[C@@H](CC1CCCCC1)C(O)CCC(=O)NCc1ccccc1` (stereo partly drawn) [Example 27, L-histidinamide,N-(3-methyl-1-oxobutyl)-L-phenylalanyl-N-[1-(cyclohexylmethyl)-2-hydroxy-5-oxo-5-[(phenylmethyl)amino]pentyl]], the half-inhibitory concentration (IC50) amounted to 0.25 µM.

As for `CC(C)CC(=O)N[C@@H](Cc1ccccc1)C(=O)N[C@@H](Cc1c[nH]cn1)C(=O)N[C@@H](CC1CCCCC1)C(O)CCC(=O)N[C@@H](CC(C)C)C(=O)NCc1ccccc1` (stereo partly shown) [Example 28], the concentration for half-maximal inhibition (IC50) was 0.014 µM.

In turn, `CC(C)C[C@H](NC(=O)C[C@H](O)[C@H](CC1CCCCC1)NC(=O)CCC[C@H](Cc1ccccc1)NC(=O)OC(C)(C)C)C(=O)NCc1cccc(CN)c1` [Example 36] showed an IC50 of 63 µM.

`CC(C)CC(=O)NC(Cc1ccccc1)CS(=O)(=O)C(Cc1ccccc1)C(=O)NC(CC(C)C)C(O)CC(=O)NC(C)C(=O)NC(CC(C)C)C(O)CC(=O)NCc1ccccc1` (stereo not shown) [Example 38, 13,21-dihydroxy-2,17-dimethyl-12,20-bis(2-methylpropyl)-4,10,15,18-tetraoxo-N,6,9-tris(phenylmethyl)-8-thia-5,11,16,19-tetraazatricosan-23-amide-8,8-dioxide] came in with a 50% inhibitory concentration (IC50) of 1.5 µM.

`CC(C)CC(=O)NC(CSC(Cc1ccccc1)C(=O)NC(CC(C)C)C(O)CC(=O)NC(CC(C)C)C(=O)NCc1ccccc1)Cc1ccccc1` (stereo not shown) [Example 39, 6-hydroxy-17-methyl-2,7-bis(2-methylpropyl)-4,9,15-trioxo-N,10,13-tris(phenylmethyl)-11-thia-3,8,14-triazaoctadecanamide] gave an IC50 of 30 µM.

In turn, `CC(C)CC(=O)NC(Cc1ccccc1)C[S+]([O-])C(Cc1ccccc1)C(=O)NC(CC(C)C)C(O)CC(=O)NC(C)C(=O)NC(CC(C)C)C(O)CC(=O)NCc1ccccc1` (stereo not shown) [Example 40, 13,21-dihydroxy-2,17-dimethyl-12,20-bis(2-methylpropyl)-4,10,15,18-tetraoxo-N,6,9-tris(phenylmethyl)-8-thia-5,11,16,19-tetraazatricosan-23-amide-8-oxide] returned a half-maximal inhibitory concentration (IC50) of 2 µM.

For the origin of these results see patent US4743585A (Warner-Lambert Company, priority 1986, dated 1988).
